Measured values taken from US20170029355A1, “LABILE ESTERS OF AGROCHEMICALS FOR CONTROLLED RELEASE AND REDUCTION OF OFF-SITE MOVEMENT” (Monsanto Technology LLC, priority 2011, published 2017).
Values belong to the molecule of their own block, whether it stands above or below them.

How the values were obtained:
[1] = system: broadleaf weeds; assay: Control of broadleaf weeds by ester concentrates (statements of the description); assay type: in vivo; conditions: emulsifiable and suspension concentrates; Sesbania macrocarpa, morning glory, velvetleaf, Palmer amaranth, fat hen, sicklepod
[2] = In vitro photo-release and hydrolytic release of dicamba in an aqueous medium (Example 36); assay type: physicochemical; conditions: 0.01 mM (0.005 mM for diesters)
Description: This Example describes the determination of photo-lability and hydrolytic lability of dicamba esters in an aqueous medium. 1 mM solutions of the esters were prepared in acetonitrile (or […] solutions of dicamba diesters). The solutions were then diluted with deionized water to a concentration of 0.01 mM (or 0.005 mM for diesters). The solutions were then transferred to quartz tubes and amber bottles and held in a growth chamber by the procedure of Example 26. A 14-hour day was generally used at a constant temperature of 35° C. Hydrolytic activity was assessed by measuring the increase in dicamba concentration after day zero in the amber (dark) bottles. […] Photolysis manifested itself as increased conversion in the quartz tubes compared to the dark control.
This Example provides the results of an aqueous lability test following the protocol of Example 35 for several dicamba esters which convert to dicamba primarily by hydrolysis. As shown by the results in the table below, conversion of the dark controls generally equaled or exceeded conversion in the photolysis solutions.

[3] = system: Euphorbia species; assay: Field testing for post-emergent activity in the Southern Hemisphere (Example 39); assay type: in vivo; conditions: 9 as suspension concentrate, other esters as emulsifiable concentrates; for % control, 0.25 lb/ac (0.28 kg/hectare): 0.25 lb dicamba a.e. per acre; for % control, 0.50 lb/ac (0.56 kg/hectare): 0.50 lb dicamba a.e. per acre
Description: The primary weeds were Euphorbia species. Ester 9 was tested as a suspension concentrate using the formulation of Example 33 The other esters were tested as emulsifiable concentrates having the formulations shown in the table below. Akzo Nobel SPONTO EC 334 and SPONTO EC 336 along with SURFONIC CO-54 and […] (Huntsman) were used as emulsifiers and Aromatic 200 (A 200; Exxon) was used as the solvent. […] The diglycolamine salt of dicamba (CLARITYTM) was used as a comparator.

[4] = system: velvetleaf; assay: Greenhouse post-emergent control of velvetleaf by emulsifiable concentrates (Example 37); assay type: in vivo; conditions: Abutilon theophrasti, post-emergence, 504 h, greenhouse, Example 37
Description: (§1) The efficacy of some photo-labile ester formulations from Example 28 for post-emergent control of velvetleaf was tested in the greenhouse. All formulations were tested at rates of 140, 280, 420, and 560 g dicamba equivalent per hectare rates and compared to the diglycolamine salt of dicamba (CLARITY®) at the same rates and untreated control plants. The velvetleaf plants were 10-15 cm in height at the time of spraying. Percent control was evaluated three weeks after treatment.
The methodology of Example 29 was used to evaluate the efficacy of several esters of dicamba which convert to dicamba by hydrolysis for post-emergent control of velvetleaf as emulsifiable concentrate formulations.

[5] = Photolysis / cleavage of the esters to dicamba (statements of the description); assay type: physicochemical; conditions: qualitative
Text: The efficacy of the photolabile esters can be assayed in vitro, or in greenhouse or field experiments. A useful in vitro assay for post-emergent activity involves photolysis of a dilute solution of the esters using simulated sunlight. This is conveniently achieved by photolysis of a solution of the ester in an organic solvent which is miscible with water and to which some water has been added. As described in the Examples, photolysis in acetonitrile or tetrahydrofuran containing 10% water by weight is effective. Low concentrations of the ester should be used so that the entire volume is exposed to sunlight. Since the maximum extinction coefficient of the typical esters above 220 nm is in the range of 1000-10,000 M^−1 cm^−1, a concentration of 0.1 mM is effective. Photolysis in a quartz tube exposed to simulated or actual sunlight is a typical protocol.

[6] = In vitro dicamba photo-release from photo-labile dicamba esters, acetonitrile/10% water solvent (Example 27); assay type: physicochemical; conditions: acetonitrile containing 10% water
Description: (§2) This Example describes in vitro testing of dicamba photo-release by homogeneous solutions of photo-labile dicamba esters. The esters were dissolved in tetrahydrofuran (THF). Ester concentration was 0.1 mM. 25 ml of the solution was transferred to 22 mm tubes fabricated from graded seal quartz tubing with a 19/22 tapered seal at the top, which was closed with a tapered glass plug and secured with a plastic ring clamp. The solution was entirely below the quartz-to-glass transition, ensuring that the entire volume was exposed to the full spectrum.
(§3) The sealed tubes were placed in a Growth Chamber where they were exposed to simulated sunlight for 14 hours per day at 35° C. Dicamba concentrations in the solution were measured during the course of the photolysis.
(§4) A sample of the initial solution was reserved in a glass vial away from the light source and analyzed at the conclusion of the study, providing a measurement of the amount of dicamba present without illumination of the photolysis solution (the “dark control”).
This Example is another photolysis of photo-labile dicamba esters, but using acetonitrile containing 10% water by weight as the solvent. The experimental protocol is otherwise the same as in Example 18.

[7] = Solubility of the esters (statements of the description); assay type: physicochemical; conditions: qualitative
[8] = system: hemp sesbania; assay: Field testing of emulsifiable concentrates, post-emergent control (Example 38); assay type: in vivo
Text: (§5) Four dicamba esters, 1a, 2, 9, and 13a, were formulated as emulsifiable concentrates for field testing. All formulations contained 5% each of a alkylbenzene sulfonate calcium salt (Huntsman NANSA EVM 62/H or Akzo Nobel WITCONATE P-1220 EH) and castor oil ethoxylate (Huntsman SURFONIC CO-54) as the emulsifiers and Aromatic 200 (Exxon) or monochlorobenzene (MCB) as the solvent.
(§6) The esters were compared to the diglycolamine salt of dicamba (CLARITY™) for post-emergent control of three broadleaf weeds: velvetleaf, morning glory, and hemp sesbania. Rates of 280 and 420 g dicamba acid equivalent per hectare were used. […] Evaluations were conducted at 11 or 21 days after treatment. Locations and timing were identical for all formulations tested.

[9] = system: morning glory; assay: as above; assay type: in vivo
Text: as §5, §6

[10] = system: velvetleaf; assay: as above; assay type: in vivo
Text: as §5, §6

[11] = In vitro dicamba photo-release from photo-labile dicamba esters, tetrahydrofuran solvent (Example 26); assay type: physicochemical
Description: as §2, §3, §4

[12] = system: velvetleaf; assay: Greenhouse post-emergent control of velvetleaf by emulsifiable concentrates (Example 29); assay type: in vivo; conditions: three weeks after treatment
Description: as §1

[13] = 280 and 420 g dicamba acid equivalent per hectare
[14] = 280 g dicamba acid equivalent per hectare, 11 or 21 days after treatment
[15] = 420 g dicamba acid equivalent per hectare, 11 or 21 days after treatment

Conversion to Dicamba, Dark, Day 0 ([2]; amber (dark) bottle, Day 0): 2% | Conversion to Dicamba, Dark, Day 1 ([2]; amber (dark) bottle, Day 1): 68% | Conversion to Dicamba, Dark, Day 2 ([2]; amber (dark) bottle, Day 2): 81% | Conversion to Dicamba, Dark, Day 3 ([2]; amber (dark) bottle, Day 3): 84% | Conversion to Dicamba, Dark, Day 4 ([2]; amber (dark) bottle, Day 4): 86% | Conversion to Dicamba, Dark, Day 7 ([2]; amber (dark) bottle, Day 7): 92% | Conversion to Dicamba, Dark, Day 14 ([2]; amber (dark) bottle, Day 14): 90% | Conversion to Dicamba, Dark, Day 21 ([2]; amber (dark) bottle, Day 21): 91% | Conversion to Dicamba, Dark, Day 28 ([2]; amber (dark) bottle, Day 28): 97% | Conversion to Dicamba, Light, Day 0 ([2]; quartz tube, Day 0): 2% | Conversion to Dicamba, Light, Day 1 ([2]; quartz tube, Day 1): 61% | Conversion to Dicamba, Light, Day 2 ([2]; quartz tube, Day 2): 63% | Conversion to Dicamba, Light, Day 3 ([2]; quartz tube, Day 3): 64% | Conversion to Dicamba, Light, Day 4 ([2]; quartz tube, Day 4): 68% | Conversion to Dicamba, Light, Day 7 ([2]; quartz tube, Day 7): 67% | Conversion to Dicamba, Light, Day 14 ([2]; quartz tube, Day 14): 71% | Conversion to Dicamba, Light, Day 21 ([2]; quartz tube, Day 21): 71% | Conversion to Dicamba, Light, Day 28 ([2]; quartz tube, Day 28): 75% | Dark Control % dicamba ([6]; no illumination): 0% | Conversion to dicamba, 1 day ([6]; simulated sunlight, 1 day): 6% | Conversion to dicamba, 2 days ([6]; simulated sunlight, 2 days): 9% | Conversion to dicamba, 3 days ([6]; simulated sunlight, 3 days): 10% | Conversion to dicamba, 5 days ([6]; simulated sunlight, 5 days): 12% | Conversion to dicamba, 7 days ([6]; simulated sunlight, 7 days): 12% | Conversion to dicamba, 11 days ([6]; simulated sunlight, 11 days): 19% | Conversion to dicamba, 13 days ([6]; simulated sunlight, 13 days): 21% | Conversion to dicamba, 15 days ([6]; simulated sunlight, 15 days): 25% | Conversion to dicamba, 19 days ([6]; simulated sunlight, 19 days): 26% | solubility, in words [7]: readily soluble in organic solvents
SMILES: COc1c(Cl)ccc(Cl)c1C(=O)Oc1ccccn1 [Ester 14, 2-Hydroxypyridine Ester of Dicamba]
control of a number of broadleaf weeds in field testing, in words [1]: proven effective | % control, 0.25 lb/ac (0.28 kg/hectare) [3]: 47% | % control, 0.50 lb/ac (0.56 kg/hectare) [3]: 56% | pest or weed control at 140 g/ha ([4]; 140 g/ha, read-out: % Control of velvetleaf, 140 g/ha): 40% | pest or weed control at 280 g/ha ([4]; 280 g/ha, read-out: % Control of velvetleaf, 280 g/ha): 58.3% | pest or weed control at 420 g/ha ([4]; 420 g/ha, read-out: % Control of velvetleaf, 420 g/ha): 80.8% | pest or weed control at 560 g/ha ([4]; 560 g/ha, read-out: % Control of velvetleaf, 560 g/ha): 85% | cleavage to form dicamba, in words [5]: undergoes efficient cleavage to form dicamba

SMILES: COc1ccc(C(=O)COC(=O)c2c(Cl)ccc(Cl)c2OC)cc1 [Ester 9, 4-methoxyphenacyl methyl ester of dicamba]
control of a number of broadleaf weeds in field testing, in words [1]: proven effective | post-emergent control of hemp sesbania compared with the dicamba salt, in words [8, 13]: equivalent to the dicamba salt | % control, 280 g/ha, Hemp sesbania [8, 14]: 86% | % control, 420 g/ha, Hemp sesbania [8, 15]: 93% | post-emergent control of morning glory compared with the dicamba salt, in words [9, 13]: equivalent to the dicamba salt | % control, 280 g/ha, Morning glory [9, 14]: 98% | % control, 420 g/ha, Morning glory [9, 15]: 100% | post-emergent control of velvetleaf compared with the dicamba salt, in words [10, 13]: nearly equivalent to the dicamba salt | % control, 280 g/ha, Velvetleaf [10, 14]: 79% | % control, 420 g/ha, Velvetleaf [10, 15]: 80% | Dark Control % dicamba ([11]; THF, 0.1 mM ester, initial solution kept away from the light source, analyzed at conclusion of study): 1% | Conversion to dicamba, 1 day ([11]; THF, 0.1 mM ester, simulated sunlight 14 hours per day, 35° C., 1 day): 76% | Conversion to dicamba, 2 days ([11]; THF, 0.1 mM ester, simulated sunlight 14 hours per day, 35° C., 2 days): 91% | Conversion to dicamba, 3 days ([11]; THF, 0.1 mM ester, simulated sunlight 14 hours per day, 35° C., 3 days): 90% | Conversion to dicamba, 5 days ([11]; THF, 0.1 mM ester, simulated sunlight 14 hours per day, 35° C., 5 days): 89% | Conversion to dicamba, 7 days ([11]; THF, 0.1 mM ester, simulated sunlight 14 hours per day, 35° C., 7 days): 89% | photo-efficiency of dicamba generation ([11]; in vitro studies): ~100% | % control, 0.25 lb/ac (0.28 kg/hectare) [3]: 54% | % control, 0.50 lb/ac (0.56 kg/hectare) [3]: 62% | photolysis / photo-release of dicamba, in words [5]: efficient photo-release of 9 in a suspension concentrate formulation occurs over several weeks | solubility, in words [7]: relatively insoluble | % Control of velvetleaf, 140 g/ha ([12]; 140 g dicamba equivalent per hectare): 23% | % Control of velvetleaf, 280 g/ha ([12]; 280 g dicamba equivalent per hectare): 19% | % Control of velvetleaf, 420 g/ha ([12]; 420 g dicamba equivalent per hectare): 28% | % Control of velvetleaf, 560 g/ha ([12]; 560 g dicamba equivalent per hectare): 29%
